Reference: patent US20260206761A1, “HETEROARYL-TRIAZOLE COMPOUNDS AS PESTICIDES” (Bayer Aktiengesellschaft, priority 2019, published 2026)

Key:
Format in all cases: in vivo
[1] = test system: adult unfed cat fleas (Ctenocephalides felis); test: Ctenocephalides felis oral test; conditions: 48 h, read-out: activity (mortality)
How it was run: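 About 20 adult unfed fleas fed through parafilm on cattle blood containing compound (DMSO stock diluted in blood), blood held at 37 °C and fleas at room temperature. Mortality (%) scored after 2 days.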

[2] = test system: green peach aphid (Myzus persicae); test: Myzus persicae oral test; conditions: 120 h, application rate 4 ppm, after 5 days
How it was run: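 Oral uptake format: water-diluted acetone concentrate of compound is blended into IPL41 medium carrying 33%+15% sugar and offered under a parafilm membrane. Percentage of dead insects is recorded after 5 days.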

[3] = test system: Musca domestica strain WHO-N; test: Musca domestica test (MUSCDO surface treatment & contact assay); conditions: 24 hours after contact, read-out: efficacy (mortality); for mortality at 20 mg/m2: surface concentration 20 mg/m^2, exposure 30 minutes; for mortality at 4 mg/m2: surface concentration 4 mg/m^2, exposure 30 minutes
Procedure: Musca domestica Test (MUSCDO Surface Treatment & Contact Assay)
(§1) Solvent: Aceton+2000 ppm rapeseed oil methyl ester (RME)
(§2) In order to produce a sufficient, active ingredient containing solution it is necessary to solve the test compound in the solvent-mix (acetone at 2 mg/ml/RME 2000 ppm). This solution is pipetted onto a glazed tile and after evaporation of the acetone, adult flies of the species Musca domestica strain WHO—N are placed onto the dried surface. The exposure time is 30 minutes. Mortality in percent (%) is determined 24 hours after contact of the insects to the treated surface. 100% mortality means that all tested insects are dead, whereas 0% means that no insect died.

[4] = test system: adult engorged female ticks (Rhipicephalus microplus); test: Rhipicephalus (Boophilus) microplus injection test; conditions: 168 h, egg deposition after 7 days, read-out: activity (efficacy: infertile eggs); for pest or weed control at 4 pg: application rate 4 pg/animal; for pest or weed control at 0.02 mg: application rate 20 μg/animal
How it was run: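 Five adult engorged female ticks injected into the abdomen with 1 μL compound solution in DMSO, then held in a climate chamber. Fertile egg deposition assessed after 7 days, unclear eggs kept until hatching (about 42 days); efficacy 100% = all eggs infertile, 0% = all fertile.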

[5] = test system: adult cat fleas (Ctenocephalides felis); test: Ctenocephalides felis in-vitro contact test, adult cat flea; conditions: application rate 5 μg/cm^2 (=500 g/ha), after 48 hours, read-out: activity (efficacy: fleas dead or moribund)
Procedure: Ctenocephalides felis—In-Vitro Contact Tests Adult Cat Flea
9 mg compound is solved in 1 mL acetone and diluted with acetone to the desired concentration. 250 μL of the test solution is filled in 25 mL glass test tubes and homogeneously distributed on the inner walls by rotation and tilting on a shaking device (2 h at 30 rpm). With a compound concentration of 900 ppm, an inner surface of 44.7 cm^2 and a homogeneous distribution, a dose of […] is achieved.
After the solvent has evaporated, each test tube is filled with 5-10 adult cat fleas (Ctenocephalides felis), closed with a perforated lid and incubated in a lying position at room temperature and relative humidity. After 48 hours efficacy is determined. The fleas are patted on the ground of the tubes and are incubated on a heating plate at 45-50° C. for at most 5 minutes. Immotile or uncoordinated moving fleas, which are not able to escape the heat by climbing upwards, are marked as dead or moribund.
An efficacy of 100% means all fleas are dead or moribund; 0% means no fleas are dead or moribund.

[6] = test system: adult brown dog ticks (Rhipicephalus sanguineus); test: Rhipicephalus sanguineus in-vitro contact test, adult brown dog ticks; conditions: after 48 hours, read-out: activity (efficacy: ticks dead or moribund); for pest or weed control at 100 g/ha: application rate 1 pg/cm^2 (=100 g/ha); for pest or weed control at 5 µg/cm2, 500 g/ha: application rate 5 μg/cm^2 (=500 g/ha)
How it was run: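 Acetone solution (900 ppm giving 5 μg/cm²) coated on inner walls of glass tubes; after drying, 5-10 adult ticks added and held at room temperature 48 h. Ticks then placed on 45-50 °C plate ≤5 min; those unable to climb away scored dead/moribund, efficacy as % affected.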

[7] = test system: Rhipicephalus microplus larvae (strain Parkhurst, resistant against synthetic pyrethroids); test: Rhipicephalus (Boophilus) microplus in-vitro contact test, larval cattle tick; conditions: after 48 hours, read-out: activity (efficacy: larvae dead or moribund); for pest or weed control at 100 g/ha: application rate 1 pg/cm^2 (=100 g/ha); for pest or weed control at 500 g/ha: application rate 5 pg/cm^2 (=500 g/ha)
How it was run: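 Acetone solutions coated onto inner walls of glass tubes by rotation (900 ppm giving 5 μg/cm^2); after evaporation, 20-50 larvae added per tube and held at 27° C., 85% relative humidity. Efficacy read after 48 h from negative geotactic behaviour; 100% = all larvae dead or moribund.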

[8] = test system: larvae of the southern green stink bug (Nezara viridula); test: Nezara viridula spray test; conditions: 96 h, after 4 days; for mortality at 100 g/ha: application rate 100 g/ha
How it was run: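 Compound in acetone/dimethylformamide, diluted in water with 1000 ppm alkylarylpolyglycol ether emulsifier, sprayed onto barley plants carrying stink bug larvae. Mortality (%) scored after 4 days, 100% meaning all insects killed.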

[9] = test system: larvae of the banded cucumber beetle (Diabrotica balteata); test: Diabrotica balteata spray test; conditions: 168 h, after 7 days, read-out: activity (efficacy: seedlings grown); for pest or weed control at 100 g/ha: application rate 100 g/ha (=32 pg/well)
How it was run: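 Wheat seedlings, germinated 1 day on agar (5 seeds/well), sprayed with active compound in acetone/DMF diluted in water containing 1000 ppm emulsifier, then infested with 10-20 D. balteata larvae. Efficacy (%) scored after 7 days: 100% = seedlings grown as untreated uninfested control, 0% = no seedlings grown.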

[10] = test system: green peach aphid (Myzus persicae); test: Myzus persicae spray test; conditions: 120 h, after 5 days; for mortality at 100 g/ha: application rate 100 g/ha
Procedure: Myzus persicae—Spray Test
Solvent: 78.0 parts by weight acetone • 1.5 parts by weight dimethylformamide
Emulsifier: alkylarylpolyglycol ether
To produce a suitable preparation of active compound, 1 part by weight of active compound is mixed with the stated amount of solvents and is diluted with water, containing an emulsifier concentration of 1000 ppm, to the desired concentration. Further test concentrations are prepared by dilution with emulsifier containing water.
Chinese cabbage (Brassica pekinensis) leaf disks infected with all instars of the green peach aphid (Myzus persicae), are sprayed with a preparation of the active ingredient of the desired concentration.
After 5 days mortality in % is determined. 100% means all aphids have been killed and 0% means none of the aphids have been killed.

[11] = test system: fall armyworm larvae (Spodoptera frugiperda); test: Spodoptera frugiperda spray test; conditions: 168 h, read-out: activity (mortality)
How it was run: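 Compound in acetone/DMF, diluted in water with 1000 ppm alkylarylpolyglycol ether emulsifier, sprayed on maize leaf sections. Dried leaves infested with fall armyworm larvae; % mortality after 7 days (100% = all killed, 0% = none).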

[12] = test system: Aedes aegypti strain MONHEIM; test: Aedes aegypti test (AEDSAE surface treatment & contact assay); conditions: 24 hours after contact, read-out: efficacy (mortality); for mortality at 4 mg/m2: surface concentration 4 mg/m^2, exposure 30 minutes; for mortality at 20 mg/m2: surface concentration 20 mg/m^2, exposure 30 minutes
How it was run: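 Compound in acetone (2 mg/ml) with 2000 ppm RME pipetted onto glazed tile and dried; adult Aedes aegypti MONHEIM exposed 30 min. Percent mortality scored 24 h after contact.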

[13] = test system: Culex quinquefasciatus strain P00; test: Culex quinquefasciatus test (CULXFA surface treatment & contact assay); conditions: 24 hours after contact, read-out: efficacy (mortality)
Procedure: Culex quinquefasciatus Test (CULXFA Surface Treatment & Contact Assay)
as §1
as §2, with “2 000” for “2000”, “mosquitoes” for “flies”, “Culex quinquefasciatus” for “Musca domestica”, “P00” for “WHO—N”

Compound	mortality at 100 ppm [1] [%]	mortality at 4 ppm [2] [%]	mortality at 20 mg/m2 [3] [%]	pest or weed control at 4 pg [4] [%]	pest or weed control at 0.02 mg [4] [%]	pest or weed control at 5 µg/cm2 [5] [%]	pest or weed control at 100 g/ha [6] [%]	pest or weed control at 5 µg/cm2, 500 g/ha [6] [%]	pest or weed control at 100 g/ha [7] [%]	pest or weed control at 500 g/ha [7] [%]	mortality at 100 g/ha [8] [%]	pest or weed control at 100 g/ha [9] [%]	mortality at 100 g/ha [10] [%]	mortality at 100 g/ha [11] [%]	mortality at 4 mg/m2 [3] [%]	mortality at 4 mg/m2 [12] [%]	mortality at 20 mg/m2 [12] [%]	also measured
C[C@H](NC(=O)c1cc(Cl)cc(S(=O)(=O)CC(F)(F)F)c1)c1nc(C2CC2)nn1-c1ccc(C#N)cn1 [I-13]	90	90	80 to 100	100	100	–	–	–	–	–	–	–	–	–	–	–	–	–
C[C@H](NC(=O)c1cc(Cl)cc(C2(C#N)CC2)c1)c1ncnn1-c1ncc(Cl)cn1 [II-55]	100	100	–	100	–	100	100	100	100	100	100	100	100	100	–	–	–	–
COc1nc([C@H](C)NC(=O)c2cc(OC(F)(F)F)cc(S(C)(=O)=O)c2)n(-c2ccc(Cl)cn2)n1 [I-80]	–	100	80 to 100	–	–	–	–	–	–	–	100	100	90	100	80 to 100	–	–	mortality at 500 g/ha ([8]; application rate 500 g/ha): 100%
C[C@H](NC(=O)c1cc(Cl)cc(C2(C#N)CC2)c1)c1nc(C2CC2)nn1-c1ccc(C#N)cn1 [I-36]	100	–	80 to 100	100	–	–	100	80	100	100	–	100	–	100	80 to 100	80 to 100	80 to 100	–
Cc1nc([C@H](C)NC(=O)c2cc(C)n(C)n2)n(-c2ccc(C#N)cn2)n1 [II-6]	100	–	–	100	100	100	80	100	–	–	–	–	90	–	–	80 to 100	80 to 100	mortality at 4 mg/m2 ([13]; surface concentration 4 mg/m^2, exposure 30 minutes): 80 to 100%; mortality at 20 mg/m2 ([13]; surface concentration 20 mg/m^2, exposure 30 minutes): 80 to 100%; pest or weed control at 500 g/ha ([9]; application rate 500 g/ha (=160 pg/well)): 100%; mortality at 500 g/ha ([10]; application rate 500 g/ha): 90%; mortality at 500 g/ha [11]: 100%
